According to ChEMBL document CHEMBL5500384, “New synergistic benzoquinone scaffolds as inhibitors of mycobacterial cytochrome bc1 complex to treat multi-drug resistant tuberculosis” (Eur J Med Chem, 2024):
Values after ≈ are worked out from the molar mass of the structure shown.

What was measured:
[1] = system: Mycobacterium tuberculosis; test: Antitubercular activity against Mycobacterium tuberculosis H37Rv incubated for 5 days by microtiter plate method; format: functional; conditions: 120 h, time 5 day
[2] = Cytotoxicity against african green monkey Vero cells by MTT assay; format: toxicity, cell-based; conditions: chlorocebus sabaeus
[3] = Cytotoxicity against african green monkey Vero cells assessed as cell viability at 12.5 ug/ml by MTT assay; format: toxicity, cell-based; conditions: chlorocebus sabaeus, at 12.5 µg/mL, read-out: Activity
[4] = Cytotoxicity against african green monkey Vero cells assessed as cell viability at 25 ug/ml by MTT assay; format: toxicity, cell-based; conditions: chlorocebus sabaeus, at 25 µg/mL, read-out: Activity
[5] = Cytotoxicity against african green monkey Vero cells assessed as cell viability at 50 ug/ml by MTT assay; format: toxicity, cell-based; conditions: chlorocebus sabaeus, at 50 µg/mL, read-out: Activity
[6] = Cytotoxicity against african green monkey Vero cells assessed as cell viability at 3.125 ug/ml by MTT assay; format: toxicity, cell-based; conditions: chlorocebus sabaeus, at 3.125 µg/mL, read-out: Activity
[7] = Pulmonary toxicity in Albino mouse assessed as appearance of cilia at 50 to 2000 mg/kg, po measured after 14 days; format: organism-based; conditions: in vivo, 336 h, dose 50-2000 mg/kg, time 14 day
[8] = Hepatotoxicity in Albino mouse assessed as change in hepatic artery at 50 to 2000 mg/kg, po measured after 14 days; format: toxicity, organism-based, Liver; conditions: in vivo, 336 h, dose 50-2000 mg/kg, time 14 day
[9] = Acute toxicity in Albino mouse assessed as change in platelet count at 50 to 2000 mg/kg, po measured after 14 days (reference value: 3.24 mm3); format: organism-based; design: unit not given here; conditions: in vivo, 336 h, dose 50-2000 mg/kg, time 14 day
[10] = Acute toxicity in po dosed Albino mouse assessed as mortality after 14 days; format: organism-based; conditions: in vivo, time 14 day
[11] = Acute toxicity in Albino mouse assessed as change in serum creatine level at 50 to 2000 mg/kg, po measured after 14 days (reference value: 0.9 mg/dl); format: organism-based; conditions: in vivo, 336 h, dose 50-2000 mg/kg, time 14 day
[12] = Renal toxicity in Albino mouse assessed as change in renal tubules at 50 to 2000 mg/kg, po measured after 14 days; format: organism-based; conditions: in vivo, 336 h, dose 50-2000 mg/kg, time 14 day
[13] = Acute toxicity in Albino mouse assessed as change in SGOT count at 50 to 2000 mg/kg, po measured after 14 days (reference value: 42 IU/L); format: organism-based; conditions: in vivo, 336 h, dose 50-2000 mg/kg, time 14 day
[14] = Hepatotoxicity in Albino mouse assessed as change in portal tracks at 50 to 2000 mg/kg, po measured after 14 days; format: toxicity, organism-based; conditions: in vivo, 336 h, dose 50-2000 mg/kg, time 14 day
[15] = Acute toxicity in Albino mouse assessed as change in ESR at 50 to 2000 mg/kg, po measured after 14 days (reference value: 10 millimeter); format: organism-based; conditions: in vivo, 336 h, dose 50-2000 mg/kg, time 14 day
[16] = Renal toxicity in Albino mouse assessed as change in distal convoluted tubules at 50 to 2000 mg/kg, po measured after 14 days; format: organism-based; conditions: in vivo, 336 h, dose 50-2000 mg/kg, time 14 day
[17] = Acute toxicity in Albino mouse assessed as change in eosinophils at 50 to 2000 mg/kg, po measured after 14 days (reference value: 3%); format: organism-based; conditions: in vivo, 336 h, dose 50-2000 mg/kg, time 14 day
[18] = Pulmonary toxicity in Albino mouse assessed as change in bronchi structure at 50 to 2000 mg/kg, po measured after 14 days; format: organism-based; conditions: in vivo, 336 h, dose 50-2000 mg/kg, time 14 day
[19] = Acute toxicity in Albino mouse assessed as change in SGPT count at 50 to 2000 mg/kg, po measured after 14 days (reference value: 52 IU/L); format: organism-based; conditions: in vivo, 336 h, dose 50-2000 mg/kg, time 14 day
[20] = Renal toxicity in Albino mouse assessed as change in Bowman's capsule at 50 to 2000 mg/kg, po measured after 14 days; format: organism-based; conditions: in vivo, 336 h, dose 50-2000 mg/kg, time 14 day
[21] = Hepatotoxicity in Albino mouse assessed as change in central vein at 50 to 2000 mg/kg, po measured after 14 days; format: toxicity, organism-based; conditions: in vivo, 336 h, dose 50-2000 mg/kg, time 14 day
[22] = Pulmonary toxicity in Albino mouse assessed as change in alveolar sacs at 50 to 2000 mg/kg, po measured after 14 days; format: organism-based; conditions: in vivo, 336 h, dose 50-2000 mg/kg, time 14 day
[23] = Acute toxicity in Albino mouse assessed as change in serum urea level at 50 to 2000 mg/kg, po measured after 14 days (reference value: 46 mg/dl); format: organism-based; conditions: in vivo, 336 h, dose 50-2000 mg/kg, time 14 day
[24] = Acute toxicity in Albino mouse assessed as change in ALP level at 50 to 2000 mg/kg, po measured after 14 days (reference value: 28 IU/L); format: organism-based; conditions: in vivo, 336 h, dose 50-2000 mg/kg, time 14 day
[25] = Pulmonary toxicity in Albino mouse assessed as change in squamous pneumocytes at 50 to 2000 mg/kg, po measured after 14 days; format: organism-based; conditions: in vivo, 336 h, dose 50-2000 mg/kg, time 14 day
[26] = Acute toxicity in Albino mouse assessed as change in RBC count measured per million cells at 50 to 2000 mg/kg, po measured after 14 days (reference value: 9.15 microL); format: organism-based, Erythrocyte; conditions: in vivo, 336 h, dose 50-2000 mg/kg, time 14 day
[27] = Acute toxicity in Albino mouse assessed as change in neutrophils at 50 to 2000 mg/kg, po measured after 14 days (reference value: 75%); format: organism-based; conditions: in vivo, 336 h, dose 50-2000 mg/kg, time 14 day
[28] = Hepatotoxicity in Albino mouse assessed as change in bile duct at 50 to 2000 mg/kg, po measured after 14 days; format: toxicity, organism-based, Liver; conditions: in vivo, 336 h, dose 50-2000 mg/kg, time 14 day
[29] = Acute toxicity in Albino mouse assessed as change in hemoglobin level at 50 to 2000 mg/kg, po measured after 14 days (reference value: 12.8 g/dl); format: organism-based; conditions: in vivo, 336 h, dose 50-2000 mg/kg, time 14 day
[30] = Acute toxicity in Albino mouse assessed as mortality at 300 mg/kg, po after 14 days; format: organism-based; conditions: in vivo, 336 h, time 14 day
[31] = Renal toxicity in Albino mouse assessed as extravasation of RBC at 50 to 2000 mg/kg, po measured after 14 days; format: organism-based, Erythrocyte; conditions: in vivo, 336 h, dose 50-2000 mg/kg, time 14 day
[32] = Pulmonary toxicity in Albino mouse assessed as appearance of goblet cells at 50 to 2000 mg/kg, po measured after 14 days; format: organism-based; conditions: in vivo, 336 h, dose 50-2000 mg/kg, time 14 day
[33] = Hepatotoxicity in Albino mouse assessed as change in portal vein at 50 to 2000 mg/kg, po measured after 14 days; format: toxicity, organism-based; conditions: in vivo, 336 h, dose 50-2000 mg/kg, time 14 day
[34] = Hepatotoxicity in Albino mouse assessed as change in hepatocytes at 50 to 2000 mg/kg, po measured after 14 days; format: toxicity, organism-based; conditions: in vivo, 336 h, dose 50-2000 mg/kg, time 14 day
[35] = Renal toxicity in Albino mouse assessed as change in tubular capillaries at 50 to 2000 mg/kg, po measured after 14 days; format: organism-based; conditions: in vivo, 336 h, dose 50-2000 mg/kg, time 14 day
[36] = Pulmonary toxicity in Albino mouse assessed as change in alveoli structure at 50 to 2000 mg/kg, po measured after 14 days; format: organism-based; conditions: in vivo, 336 h, dose 50-2000 mg/kg, time 14 day
[37] = Acute toxicity in Albino mouse assessed as change in monocytes at 50 to 2000 mg/kg, po measured after 14 days (reference value: 1%); format: organism-based; conditions: in vivo, 336 h, dose 50-2000 mg/kg, time 14 day
[38] = Acute toxicity in Albino mouse assessed as change in total leucocyte count at 50 to 2000 mg/kg, po measured after 14 days (reference value: 7400 mm3); format: organism-based; conditions: in vivo, 336 h, dose 50-2000 mg/kg, time 14 day
[39] = Acute toxicity in Albino mouse assessed as mortality at 2000 mg/kg, po after 2 to 4 hrs; format: organism-based; conditions: in vivo, time 2-4 hrs
[40] = Acute toxicity in Albino mouse assessed as change in lymphocytes at 50 to 2000 mg/kg, po measured after 14 days (reference value: 21%); format: organism-based; conditions: in vivo, 336 h, dose 50-2000 mg/kg, time 14 day
[41] = Renal toxicity in Albino mouse assessed as structural absorbability abnormalities at 50 to 2000 mg/kg, po measured after 14 days; format: organism-based; conditions: in vivo, 336 h, dose 50-2000 mg/kg, time 14 day
[42] = Acute toxicity in Albino mouse assessed as change in LDH level at 50 to 2000 mg/kg, po measured after 14 days (reference value: 1052 IU/L); format: organism-based; conditions: in vivo, 336 h, dose 50-2000 mg/kg, time 14 day
[43] = Renal toxicity in Albino mouse assessed as change in proximal convoluted tubules at 50 to 2000 mg/kg, po measured after 14 days; format: organism-based; conditions: in vivo, 336 h, dose 50-2000 mg/kg, time 14 day
[44] = Cytotoxicity against african green monkey Vero cells assessed as cell viability at 100 ug/ml by MTT assay; format: toxicity, cell-based; conditions: chlorocebus sabaeus, at 100 µg/mL, read-out: Activity
[45] = Renal toxicity in Albino mouse assessed as change in renal corpuscles at 50 to 2000 mg/kg, po measured after 14 days; format: organism-based; conditions: in vivo, 336 h, dose 50-2000 mg/kg, time 14 day
[46] = Cytotoxicity against african green monkey Vero cells assessed as cell viability at 6.25 ug/ml by MTT assay; format: toxicity, cell-based; conditions: chlorocebus sabaeus, at 6.25 µg/mL, read-out: Activity

In the case of `CCOc1cc(C2C(Cl)C(=O)N2C2=C(Cl)C(=O)c3ccccc3C2=O)ccc1O` (stereo unspecified), the MIC [1] is reported as 14.5 µM (≈ 6.25 µg/mL), the Activity [2] is reported as “Dose-Dependent Effect” and the viability at 12.5 ug/ml [3] is reported as 100%. For the same molecule, the viability at 25 ug/ml [4] was 67.8%, the viability at 50 ug/ml [5] was 30.6% and the viability at 3.125 ug/ml [6] was 100%. The Activity [7] was “Non-Toxic”, the Activity [8] was “Non-Toxic” and the Activity [9] was 4.9. The LD50 at 336 h [10] was 300 mg/kg, the Activity [11] was under 0.3 mg/dL and the Activity [12] was “Non-Toxic”. The Activity [13] was 168.67 IU/L, the Activity [14] was “Non-Toxic” and the Activity [15] was 11 millimeter/hr. The Activity [16] was “Non-Toxic”, the Activity [17] was 3% and the Activity [18] was “Non-Toxic”. For the same molecule, the Activity [19] was 75.33 IU/L, the Activity [20] was “Non-Toxic” and the Activity [21] was “Non-Toxic”. The Activity [22] was “Non-Toxic”, the Activity [23] was 35.72 mg/dL and the Activity [24] was 832.75 IU/L. For the same molecule, the Activity [25] was “Non-Toxic”, the Activity [26] was 8.95 and the Activity [27] was 66%. The Activity [28] was “Non-Toxic”, the Activity [29] was 12.5 g/dL and the Activity [30] was “Non-Toxic”. The Activity [31] was “Non-Toxic”, the Activity [32] was “Non-Toxic” and the Activity [33] was “Non-Toxic”. The Activity [34] was “Non-Toxic”, the Activity [35] was “Non-Toxic” and the Activity [36] was “Non-Toxic”. The Activity [37] was 1%, the Activity [38] was 8200 mm3 and the Activity [39] was “Toxic”. For the same molecule, the Activity [40] was 34%, the Activity [41] was “Non-Toxic” and the Activity [42] was 470.21 IU/L. The Activity [43] was “Non-Toxic”, the viability at 100 ug/ml [44] was 10.4% and the Activity [45] was “Non-Toxic”. The viability at 6.25 ug/ml [46] was 100%.
